The test system of assay [1] is Haemonchus contortus L3. As to the kind of experiment: microbe, parasite or virus in culture. Format: cell-based. To be noted: Haemonchus contortus, 96 h, read-out: HcL3 Minimal Effective Concentration (MEC).
The test system of assay [2] is D. immitis microfilariae. As to the kind of experiment: Dirofilaria immitis, microfilariae (DiMF) in vitro motility assay. The assay is classed as cell-based. To be noted: Dirofilaria immitis, 72 h, read-out: DiMF minimally effective dose (MEC).

A value given as a limit tells only on which side of the number the result lay.

For the compound `N#Cc1ccc2c(c1)c1c(n2C(=O)NCc2ccnc(F)c2)CCN(C/C=C/c2c(F)cc(F)cc2F)C1` [Example 106, (E)-8-cyano-N-((2-fluoropyridin-4-yl)methyl)-2-(3-(2,4,6-trifluorophenyl)allyl)-1,2,3,4-tetrahydro-5H-pyrido[4,3-b]indole-5-carboxamide], the minimal effective concentration is 0.3 µM in assay [1] and above 100 µM in assay [2].
For `CS(=O)(=O)c1ccc2c(c1)c1c(n2C(=O)NCc2ccnc(Cl)c2)CCN(C/C=C/c2ccc(Cl)cc2)C1` [Example 457, (E)-2-(3-(4-chlorophenyl)allyl)-N-((2-chloropyridin-4-yl)methyl)-8-(methylsulfonyl)-1,2,3,4-tetrahydro-5H-pyrido[4,3-b]indole-5-carboxamide], in that order: 1 µM and 10 µM.
On the same counts, the results for `O=C(NCc1ccnc(F)c1)n1c2c(c3cc(Cl)ccc31)CN(C/C=C/c1ccc(Cl)cc1)CC2` [Example 260, (E)-8-chloro-2-(3-(4-chlorophenyl)allyl)-N-((2-fluoropyridin-4-yl)methyl)-1,2,3,4-tetrahydro-5H-pyrido[4,3-b]indole-5-carboxamide] are 0.4 µM and 10 µM.
On the same counts, the results for `O=C(NCc1ccnc(Cl)c1)n1c2c(c3cc(Br)ccc31)CN(C/C=C/c1ccc(F)c(F)c1)CC2` [Example 183, (E)-8-bromo-N-((2-chloropyridin-4-yl)methyl)-2-(3-(3,4-difluorophenyl)allyl)-1,2,3,4-tetrahydro-5H-pyrido[4,3-b]indole-5-carboxamide] are 0.5 µM and 18.2 µM.
With `O=C(NCc1ccc(F)cc1)n1c2c(c3cc(F)ccc31)CN(C/C=C/c1ccc(Cl)cc1)CC2` [Example 170, (E)-2-(3-(4-chlorophenyl)allyl)-8-fluoro-N-(4-fluorobenzyl)-1,2,3,4-tetrahydro-5H-pyrido[4,3-b]indole-5-carboxamide], the minimal effective concentration in assay [1] is above 100 µM; in assay [2], 1 µM.
For `O=C(NCc1ccnc(Cl)c1)n1c2c(c3ccc(Cl)cc31)CN(C/C=C/c1ccc(F)cc1F)CC2` [Example 209, (E)-7-chloro-N-((2-chloropyridin-4-yl)methyl)-2-(3-(2,4-difluorophenyl)-allyl)-1,2,3,4-tetrahydro-5H-pyrido[4,3-b]indole-5-carboxamide], in that order: above 100 µM and 33 µM.
For `O=C(NCc1ccnc(Cl)c1)n1c2c(c3cc(Cl)c(Cl)cc31)CN(C/C=C/c1ccc(C(F)(F)F)cc1)CC2` [Example 285, (E)-7,8-dichloro-N-((2-chloropyridin-4-yl)methyl)-2-(3-(4-(trifluoromethyl)-phenyl)allyl)-1,2,3,4-tetrahydro-5H-pyrido[4,3-b]indole-5-carboxamide], the minimal effective concentration in assay [1] is above 100 µM; in assay [2], 10 µM.
On the same counts, the results for `O=C(NCc1ccnc(Cl)c1)n1c2c(c3ccc(OC(F)(F)F)cc31)CN(Cc1ccc3cc(Cl)ccc3c1)CC2` [Example 368, 2-((6-chloronaphthalen-2-yl)methyl)-N-((2-chloropyridin-4-yl)methyl)-7-(trifluoromethoxy)-1,2,3,4-tetrahydro-5H-pyrido[4,3-b]indole-5-carboxamide] are above 100 µM and 43.5 µM.
As to `O=C(NCc1ccnc(Cl)c1)n1c2c(c3cc(Br)c(OC(F)(F)F)cc31)CN(C/C=C/c1ccc(Cl)cc1)CC2` [Example 492, (E)-8-bromo-2-(3-(4-chlorophenyl)allyl)-N-((2-chloropyridin-4-yl)methyl)-7-(trifluoromethoxy)-1,2,3,4-tetrahydro-5H-pyrido[4,3-b]indole-5-carboxamide], the values for the minimal effective concentration in assay [1] and in assay [2] were 1.8 µM and 0.5 µM, respectively.
In the case of `O=C(NCc1ccnc(Cl)c1)n1c2c(c3c(Cl)cccc31)CN(C/C=C/c1ccc(OC(F)(F)F)cc1)CC2` [Example 222, (E)-9-chloro-N-((2-chloropyridin-4-yl)methyl)-2-(3-(4-(trifluoromethoxy)-phenyl)allyl)-1,2,3,4-tetrahydro-5H-pyrido[4,3-b]indole-5-carboxamide], the values for the minimal effective concentration in assay [1] and in assay [2] were above 100 µM and 10 µM, respectively.
`O=C(NCc1ccnc(F)c1)n1c2c(c3cc(Cl)ccc31)CN(C/C=C/c1ccc(F)cc1F)CC2` [Example 257, (E)-8-chloro-2-(3-(2,4-difluorophenyl)allyl)-N-((2-fluoropyridin-4-yl)methyl)-1,2,3,4-tetrahydro-5H-pyrido[4,3-b]indole-5-carboxamide]: the minimal effective concentration in assay [1] was determined as 0.2 µM; in assay [2], 5.7 µM.
On the same counts, the results for `N#Cc1ccc(/C=C/CN2CCc3c(c4cc(Cl)ccc4n3C(=O)NCc3ccnc(Cl)c3)C2)cc1` [Example 241, (E)-8-chloro-N-((2-chloropyridin-4-yl)methyl)-2-(3-(4-cyanophenyl)allyl)-1,2,3,4-tetrahydro-5H-pyrido[4,3-b]indole-5-carboxamide] are 0.4 µM and 13.5 µM.
As for `N#Cc1cc2c3c(n(C(=O)NCc4ccnc(Cl)c4)c2cc1F)CCN(C/C=C/c1ccc(Cl)cc1)C3` [Example 178, (E)-2-(3-(4-chlorophenyl)allyl)-N-((2-chloropyridin-4-yl)methyl)-8-cyano-7-fluoro-1,2,3,4-tetrahydro-5H-pyrido[4,3-b]indole-5-carboxamide], the minimal effective concentration was 0.3 µM in assay [1] and above 100 µM in assay [2].
On to `N#Cc1ccc(/C=C/CN2CCc3c(c4c(Br)cccc4n3C(=O)NCc3ccnc(Cl)c3)C2)cc1` [Example 442, (E)-9-bromo-N-((2-chloropyridin-4-yl)methyl)-2-(3-(4-cyanophenyl)allyl)-1,2,3,4-tetrahydro-5H-pyrido[4,3-b]indole-5-carboxamide], for which the minimal effective concentration in assay [1] and in assay [2] was 10 µM each time.
As for `Cc1cc2c3c(n(C(=O)NCc4ccnc(Cl)c4)c2cc1C(F)(F)F)CCN(C/C=C/c1ccc(Cl)cc1)C3` [Example 330, (E)-2-(3-(4-chlorophenyl)allyl)-N-((2-chloropyridin-4-yl)methyl)-8-methyl-7-(trifluoromethyl)-1,2,3,4-tetrahydro-5H-pyrido[4,3-b]indole-5-carboxamide], the results for the minimal effective concentration in assay [1] and in assay [2] were 0.5 µM and above 100 µM, respectively.
As to `CCOc1ccc2c(c1)c1c(n2C(=O)NCc2ccnc(Cl)c2)CCN(C/C=C/c2ccc(F)cc2)C1` [Example 514, (E)-N-((2-chloropyridin-4-yl)methyl)-8-ethoxy-2-(3-(4-fluorophenyl)allyl)-1,2,3,4-tetrahydro-5H-pyrido[4,3-b]indole-5-carboxamide], the minimal effective concentration in assay [1] and in assay [2] was 5.7 µM in each case.
Consider `O=C(NCc1ccnc(F)c1)n1c2c(c3cc(C4CC4)ccc31)CN(C/C=C/c1ccc(Cl)cc1)CC2` [Example 501, (E)-2-(3-(4-chlorophenyl)allyl)-8-cyclopropyl-N-((2-fluoropyridin-4-yl)methyl)-1,2,3,4-tetrahydro-5H-pyrido[4,3-b]indole-5-carboxamide], for which the figures for the minimal effective concentration in assay [1] and in assay [2] were 3.3 µM and 18.2 µM, respectively.
On the same counts, the results for `CSc1cc2c3c(n(C(=O)NCc4ccnc(Cl)c4)c2cc1C#N)CCN(C/C=C/c1ccc(Cl)cc1)C3` [Example 491, (E)-2-(3-(4-chlorophenyl)allyl)-N-((2-chloropyridin-4-yl)methyl)-7-cyano-8-(methylthio)-1,2,3,4-tetrahydro-5H-pyrido[4,3-b]indole-5-carboxamide] are 1 µM and 18.2 µM.
On the same counts, the results for `N#Cc1ccc2c(c1)c1c(n2C(=O)NCc2ccnc(F)c2)CCN(C/C=C/c2ccc(F)cc2Cl)C1` [Example 114, (E)-2-(3-(2-chloro-4-fluorophenyl)allyl)-8-cyano-N-((2-fluoropyridin-4-yl)methyl)-1,2,3,4-tetrahydro-5H-pyrido[4,3-b]indole-5-carboxamide] are 0.1 µM and 10 µM.
On the same counts, the results for `O=C(NCc1ccnc(Cl)c1)n1c2c(c3ccc(Br)cc31)CN(C/C=C/c1ccc(F)cc1F)CC2` [Example 199, (E)-7-bromo-N-((2-chloropyridin-4-yl)methyl)-2-(3-(2,4-difluorophenyl)allyl)-1,2,3,4-tetrahydro-5H-pyrido[4,3-b]indole-5-carboxamide] are 5.7 µM and 24.5 µM.
As to `O=C(NCc1ccnc(Cl)c1)n1c2c(c3cc(Cl)ccc31)CN(C/C=C/c1ccc(F)cc1Cl)CC2` [Example 237, (E)-8-chloro-2-(3-(2-chloro-4-fluorophenyl)allyl)-N-((2-chloropyridin-4-yl)methyl)-1,2,3,4-tetrahydro-5H-pyrido[4,3-b]indole-5-carboxamide], the values for the minimal effective concentration in assay [1] and in assay [2] were 0.03 µM and 1.8 µM, respectively.
For `N#Cc1ccc(/C=C/CN2CCc3c(c4ccc(Br)cc4n3C(=O)NCc3ccnc(Cl)c3)C2)cc1F` [Example 438, (E)-7-bromo-N-((2-chloropyridin-4-yl)methyl)-2-(3-(4-cyano-3-fluorophenyl)allyl)-1,2,3,4-tetrahydro-5H-pyrido[4,3-b]indole-5-carboxamide], in that order: above 100 µM and 18.2 µM.
On to `Cc1cc(/C=C/CN2CCc3c(c4cc(C#N)ccc4n3C(=O)NCc3ccnc(Cl)c3)C2)ccc1Cl` [Example 96, (E)-2-(3-(4-chloro-3-methylphenyl)allyl)-N-((2-chloropyridin-4-yl)methyl)-8-cyano-1,2,3,4-tetrahydro-5H-pyrido[4,3-b]indole-5-carboxamide], for which the minimal effective concentration in assay [1] was 0.2 µM; in assay [2], above 100 µM.

(Values after patent US10570129B2 (Zoetis Services LLC, priority 2015, dated 2020).)
